Read-outs that look alike come from different tables or passages of the source.
Columns and labels:
Assay type in all cases: cell-based, guinea pig (male Hartley)
[1] = target: T1, muscarinic receptor (ileum) (Cavia porcellus, UniProt H0W1Z3); assay: Anticholinergic action in guinea-pig ileum (antagonism of ACh response, Schild method); conditions: ileum, Tyrode solution, 32° C., test compound 5 min. before ACh; for Kb: read-out: Anticholinergic activity (pA2) Ileum (converted)
T1 construct: from tissue; host or cells: guinea-pig ileal segments (male Hartley)
Procedure: (§1) 1. Anticholinergic action in guinea-pig ileum and atria Male Hartley guinea pigs were sacrificed by blowing on the head and bleeding.
(§2) Responses to acetyllchlloline (ACh) added cumulatively to the baths were isotonically recorded under a tension of 1 g. Dose-response curves of ACh were determined in the absence and presence of test compounds in various concentrations added to the baths 5 min. before ACh application.

[2] = target: T2, muscarinic receptor (atrium, cardiac) (Cavia porcellus, UniProt H0VRN8); assay: Anticholinergic action in guinea-pig atria (antagonism of ACh response, Schild method); conditions: for Kb: read-out: Anticholinergic activity (pA2) Atrium (converted)
T2 construct: from tissue; host or cells: guinea-pig isolated atria (male Hartley)
T2 sequence (H0VRN8 1-466): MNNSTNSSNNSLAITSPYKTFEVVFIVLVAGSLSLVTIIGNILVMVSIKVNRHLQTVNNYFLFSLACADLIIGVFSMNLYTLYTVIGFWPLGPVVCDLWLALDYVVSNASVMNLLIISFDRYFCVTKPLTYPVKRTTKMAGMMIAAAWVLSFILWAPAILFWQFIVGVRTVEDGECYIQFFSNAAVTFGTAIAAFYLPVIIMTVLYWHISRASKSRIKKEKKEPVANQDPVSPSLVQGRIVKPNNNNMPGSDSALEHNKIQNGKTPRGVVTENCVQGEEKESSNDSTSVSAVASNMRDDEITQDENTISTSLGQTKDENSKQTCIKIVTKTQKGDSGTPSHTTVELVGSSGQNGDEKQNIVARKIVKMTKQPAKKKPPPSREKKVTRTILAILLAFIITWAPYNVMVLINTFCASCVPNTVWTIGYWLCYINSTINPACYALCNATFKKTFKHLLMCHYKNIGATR
Procedure: as §1
The isolated atria were suspended under 0.5 g tension in organ baths containing Tyrode solution gassed with 95% O2 and 5% CO2 at 32° C.
Dose-response curves were obtained by cumulative addition of ACh and repeated in the presence of various concentrations of test compounds, allowing 10 min. equilibration time.
The affinity of test compounds were determined as described for ileum.

[3] = test system: muscarinic receptor (ileum); assay: Anticholinergic action in guinea-pig ileum (antagonism of ACh response, Schild method); conditions: ileum versus heart
Procedure: as §1, §2

[4] = target: T3, muscarinic receptor (trachea) (Cavia porcellus, UniProt H0W1Z3); assay: Anticholinergic action in guinea-pig trachea (antagonism of ACh response, Schild or van Rossum method); conditions: Tyrode solution, 37° C., 10 minutes equilibration, read-out: Anticholinergic activity (pA2) Trachea (converted)
T3 construct: from tissue; host or cells: guinea-pig tracheal ring strips (male Hartley)
Procedure: 4. Anticholinergic action in guinea-pig trachea Male Hartley guinea-pigs were killed by blowing on the head and bleeding.
Ring strips of trachea were suspended in organ bath filled with Tyrode solution, kept at 37° C. and gassed with a mixture of 95% O2 and 5% CO2.
Responses to ACh were isometrically recorded under a tension of 1 g. Concentration-Response curves were obtained cumulative addition of ACh and repeated in the presence of various concentrations of test compounds, allowing 10 minutes equilibration time.

[5] = Table 8, isolated atria, Tyrode solution, 32° C., 10 min. equilibration

T1 sequence (H0W1Z3 1-590): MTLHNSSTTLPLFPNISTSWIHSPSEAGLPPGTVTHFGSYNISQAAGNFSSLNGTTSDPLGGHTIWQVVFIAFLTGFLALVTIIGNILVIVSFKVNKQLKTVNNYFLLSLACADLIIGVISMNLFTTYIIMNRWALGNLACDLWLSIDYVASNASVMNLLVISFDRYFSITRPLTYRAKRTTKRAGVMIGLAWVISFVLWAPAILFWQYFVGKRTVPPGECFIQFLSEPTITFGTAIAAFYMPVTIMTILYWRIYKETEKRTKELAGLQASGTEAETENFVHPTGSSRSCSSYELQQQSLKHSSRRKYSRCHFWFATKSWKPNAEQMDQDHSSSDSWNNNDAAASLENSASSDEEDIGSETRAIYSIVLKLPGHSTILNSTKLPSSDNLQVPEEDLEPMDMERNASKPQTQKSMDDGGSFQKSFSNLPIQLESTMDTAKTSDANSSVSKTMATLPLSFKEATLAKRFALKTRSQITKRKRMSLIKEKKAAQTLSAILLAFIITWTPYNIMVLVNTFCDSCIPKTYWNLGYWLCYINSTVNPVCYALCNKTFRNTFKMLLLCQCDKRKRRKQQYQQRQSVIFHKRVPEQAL
T3 sequence (H0W1Z3 1-590): as above

Row | Structure (SMILES) | Kb [2, 5] | affinity for receptors in ileum as compared to receptors in heart [3] | Kb ([2]; Table 9, atrium) | Kb [4] | also measured
1 | Cc1nccn1CCCC(C#N)(c1ccccc1)c1ccccc1 [Example 7] | 6.17 nM | – | – | – | Kb [1]: 1.12 nM
2 | Cc1nccn1CCCCC(C#N)(c1ccccc1)c1ccccc1 [Example 8] | – | 10 times | – | – | Anticholinergic activity (pA2) Ileum [1]: 8.17; Anticholinergic activity (pA2) Atrium [2, 5]: 7.08
3 | Cc1nccn1CCC(C(N)=O)(c1ccccc1)c1ccccc1 [Example 11, 4-(2-Methyl-1-imidazolyl)-2,2-diphenylbutylamide] | – | 10 times | – | – | –
4 | CC(C)c1nccn1CCC(C(N)=O)(c1ccccc1)c1ccccc1 [Example 14, 4-(2-isopropyl-1-imidazolyl)-2,2-diphenylbutylamide] | 18.6 nM | 10 times | – | – | Kb [1]: 0.676 nM
5 | Cc1n(CCC(C(N)=O)(c2ccccc2)c2ccccc2)cc[n+]1Cc1ccc(F)c(F)c1 [Example 44] | – | – | 28.8 nM | 5.25 nM | –
6 | Cc1n(CCC(C(N)=O)(c2ccccc2)c2ccccc2)cc[n+]1Cc1ccc(-c2ccccc2)cc1 [Example 50] | – | – | 30.2 nM | 4.57 nM | –
7 | Cc1n(CCCCC(C(N)=O)(c2ccccc2)c2ccccc2)cc[n+]1Cc1ccccc1 [Example 51] | – | – | 20 nM | 4.57 nM | –
8 | CCN(CC)CC#CCOC(=O)C(O)(c1ccccc1)C1CCCCC1 (stereo not shown) [Oxybutynin, reference compound] | 4.07 nM | – | – | – | –
